In US9828386B2 (priority 2013, dated 2017):
Like-named read-outs stand apart in the source and are kept apart here.

Key:
Experiment in all cases: cells
Type in all cases: cell-based
Hela cell line = conditions: Hela cells, MTT, 48 h cultivation, read-out: IC50 (μM) Hela
Protocol: (§1) Test of compounds of embodiment of the present invention on inhibiting tumor cell activity
(§2) 3, cell lines: A549, BGC823, Hela cell line and normal human hepatocytes which are available from Wu Han boster Co., Ltd.;
(§3) A549, BGC823, Hela cell line and normal human hepatocytes in logarithmic growth phase are subjected to 1000 rpm centrifugation for 5 min, supernatant is then discarded, moderate medium is suspended, the cell concentration is adjusted to 3.5×10^4/well, the cells were seeded in 96-wells culture plate, and following experimental groups are set:
(§4) a negative control group; 35 test groups with same concentration (ie: groups of Compound (1) to Compound (35)); three control groups: groups of podophyllotoxin, 4′-demethylepipodophyllotoxin and etoposide.
(§5) Taking RPMI1640 containing 10% of calf serum as nutrient solution, 0.10 mL of cells per well is incubated under conditions of 37° C., 5% CO2 and saturated humidity for 24 h to nearly be covered, then the nutrient solution is discarded. […] 100 μl of DMSO is added to each well, then vibrated at 37° C. by shaker table for 30 min, then measuring absorbance (OD) at 492 nm, calculating MTT ratio=OD value of drug group/OD value of the negative control group.

BGC823 cell line = conditions: BGC823 cells, MTT, 48 h cultivation; read-out: IC50 (μM) BGC823
Protocol: as §1, §2, §3, §4, §5

A549 cell line = conditions: A549 cells, MTT, 48 h cultivation; read-out: IC50 (μM) A549
Protocol: as §1, §2, §3, §4, §5

Molecule | IC50 (Hela cell line) | IC50 (BGC823 cell line) | IC50 (A549 cell line) | IC50 (Hela cell line; Homo sapiens)
4-S-(5-methyl-1,2,4-triazole-3)-4-deoxy-4′-demethylepipodophyllotoxin [Compound 20] | 6.62 ± 0.35 µM | 0.21 ± 0.35 µM | 0.35 ± 0.37 µM | 
COc1cc(C2c3cc4c(cc3C(O)C3COC(=O)C23)OCO4)cc(OC)c1O (stereo not shown) [4′-demethylepipodophyllotoxins, 4′-demethylepipodophyllotoxin, reference compound] | 49.32 ± 0.38 µM | 63.09 ± 0.49 µM | 52.9 ± 0.85 µM | 
COc1cc(C2c3cc4c(cc3C(Sc3n[nH]c(N)n3)C3COC(=O)C23)OCO4)cc(OC)c1OC (stereo not drawn) [Compound 1, 4-S-(3-amino-1,2,4-triazole-5)-4-deoxy-podophyllotoxin] | 2.86 ± 0.34 µM | 0.83 ± 0.14 µM | 5.76 ± 0.34 µM | 
COc1cc(C2c3cc4c(cc3C(Sc3n[nH]c(C)n3)C3COC(=O)C23)OCO4)cc(OC)c1OC (stereo not drawn) [Compound 2, 4-S-(5-methyl-1,2,4-triazole-3)-4-deoxy-podophyllotoxin] | 0.15 ± 0.03 µM | 0.27 ± 0.03 µM | 1.01 ± 0.28 µM | 
COc1cc(C2c3cc4c(cc3C(Sc3nnc(N)s3)C3COC(=O)C23)OCO4)cc(OC)c1OC (stereo not drawn) [Compound 3, 4-S-(2-amino-1,3,4-thiadiazole-5)-4-deoxy-podophyllotoxin] | 0.06 ± 0.01 µM | 0.71 ± 0.03 µM | 1.98 ± 2.54 µM | 
COc1cc(C2c3cc4c(cc3C(Sc3nnc(C)s3)C3COC(=O)C23)OCO4)cc(OC)c1OC (stereo not drawn) [Compound 4, 4-S-(5-methyl-1,3,4-thiadiazol-2)-4-deoxy-podophyllotoxin] | 2.18 ± 0.07 µM | 4.01 ± 0.02 µM | 4.11 ± 0.93 µM | 
COc1cc(C2c3cc4c(cc3C(Sc3ccccn3)C3COC(=O)C23)OCO4)cc(OC)c1OC (stereo not drawn) [Compound 5, 4-S-(pyridin-2)-4-deoxy-podophyllotoxin] | 0.73 ± 0.05 µM | 4.76 ± 0.12 µM | 5.66 ± 0.47 µM | 
COc1cc(C2c3cc4c(cc3C(Sc3ncccc3C(=O)O)C3COC(=O)C23)OCO4)cc(OC)c1OC (stereo not drawn) [Compound 6, 4-S-(3-picolinate-2)-4-deoxy-podophyllotoxin] | 1.71 ± 0.07 µM | 2.65 ± 0.53 µM | 0.83 ± 0.25 µM | 
COc1cc(C2c3cc4c(cc3C(Sc3cccc(C)n3)C3COC(=O)C23)OCO4)cc(OC)c1OC (stereo not drawn) [Compound 7, 4-S-(6-methyl-pyridin-2)-4-deoxy-podophyllotoxin] | 0.9 ± 0.05 µM | 3.51 ± 0.14 µM | 1.12 ± 0.28 µM | 
COc1cc(C2c3cc4c(cc3C(Sc3ccncc3)C3COC(=O)C23)OCO4)cc(OC)c1OC (stereo not drawn) [Compound 8, 4-S-(pyridin-4)-4-deoxy-podophyllotoxin] | 3.85 ± 0.14 µM | 1.52 ± 0.11 µM | 8.12 ± 0.09 µM | 
COc1cc(C2c3cc4c(cc3C(Sc3ncccn3)C3COC(=O)C23)OCO4)cc(OC)c1OC (stereo not drawn) [Compound 9, 4-S-(pyrimidine-2)-4-deoxy-podophyllotoxin] | 3.64 ± 0.46 µM | 0.71 ± 0.14 µM | 6.4 ± 0.38 µM | 
COc1cc(C2c3cc4c(cc3C(Sc3nccc(N)n3)C3COC(=O)C23)OCO4)cc(OC)c1OC (stereo not drawn) [Compound 10, 4-S-(4-amino-pyrimidine-2)-4-deoxy-podophyllotoxin] | 1.85 ± 0.12 µM | 1.32 ± 0.15 µM | 4.65 ± 0.26 µM | 
COc1cc(C2c3cc4c(cc3C(Sc3nc(C)cc(C)n3)C3COC(=O)C23)OCO4)cc(OC)c1OC (stereo not drawn) [Compound 11, 4-S-(4,6-dimethyl-pyrimidine-2)-4-deoxy-podophyllotoxin] | 0.11 ± 0.01 µM | 1.99 ± 0.34 µM | 3.31 ± 0.26 µM | 
COc1cc(C2c3cc4c(cc3C(Sc3nc5ccccc5s3)C3COC(=O)C23)OCO4)cc(OC)c1OC (stereo not drawn) [Compound 12, 4-S-(benzothiazol-2)-4-deoxy-podophyllotoxin] | 0.6 ± 0.39 µM | 0.31 ± 0.34 µM | 3.85 ± 0.47 µM | 
COc1cc(C2c3cc4c(cc3C(Sc3nc5ccccc5[nH]3)C3COC(=O)C23)OCO4)cc(OC)c1OC (stereo not drawn) [Compound 13, 4-S-(benzimidazol-2)-4-deoxy-podophyllotoxin] | 3.1 ± 0.16 µM | 2.32 ± 0.01 µM | 6.76 ± 4.31 µM | 
COc1cc(C2c3cc4c(cc3C(Sc3nc5ccccc5o3)C3COC(=O)C23)OCO4)cc(OC)c1OC (stereo not drawn) [Compound 14, 4-S-(benzoxazole-2)-4-deoxy-podophyllotoxin] | 0.92 ± 0.08 µM | 0.21 ± 0.02 µM | 1.01 ± 0.14 µM | 

Molecule | IC50 (Hela cell line) | IC50 (BGC823 cell line) | IC50 (A549 cell line) | IC50 (Hela cell line; Homo sapiens)
COc1cc(C2c3cc4c(cc3C(Sc3nc(NS(=O)(=O)c5ccc(C)cc5)n[nH]3)C3COC(=O)C23)OCO4)cc(OC)c1OC (stereo not drawn) [Compound 15, 4-S-[3-N-(4-methyl-benzenesulfonamide-)-1,2,4-triazole-5-]-4-deoxy-podophyllotoxin] | 0.6 ± 0.08 µM | 1.69 ± 0.07 µM | 2.36 ± 0.23 µM | 
COc1ccc(S(=O)(=O)Nc2n[nH]c(SC3c4cc5c(cc4C(c4cc(OC)c(OC)c(OC)c4)C4C(=O)OCC34)OCO5)n2)cc1 (stereo not drawn) [Compound 16, 4-S-[3-N-(4-methoxy-benzenesulfonamide-)-1,2,4-triazole-5-]-4-deoxy-podophyllotoxin] | 1.56 ± 0.05 µM | 0.67 ± 0.05 µM | 1.24 ± 0.33 µM | 
COc1cc(C2c3cc4c(cc3C(Sc3nnc(NS(=O)(=O)c5ccc(C)cc5)s3)C3COC(=O)C23)OCO4)cc(OC)c1OC (stereo not drawn) [Compound 17, 4-S-[2-N-(4-methyl-benzenesulfonamide-)-1,3,4-thiadiazole-5-]-4-deoxy-podophyllotoxin] | 0.97 ± 0.02 µM | 1.04 ± 0.13 µM | 1.12 ± 1.74 µM | 
COc1ccc(S(=O)(=O)Nc2nnc(SC3c4cc5c(cc4C(c4cc(OC)c(OC)c(OC)c4)C4C(=O)OCC34)OCO5)s2)cc1 (stereo not drawn) [Compound 18, 4-S-[2-N-(4-methoxy-benzenesulfonamide-)-1,3,4-thiadiazole-5-]-4-deoxy-podophyllotoxin] | 4.14 ± 0.47 µM | 1.27 ± 0.13 µM | 4.05 ± 0.15 µM | 
COc1cc(C2c3cc4c(cc3C(Sc3nc(N)n[nH]3)C3COC(=O)C23)OCO4)cc(OC)c1O (stereo not drawn) [Compound 19, 4-S-(3-amino-1,2,4-triazole-5)-4-deoxy-4′-demethylepipodophyllotoxin] | 1.51 ± 0.37 µM | 1.93 ± 1.67 µM | 0.93 ± 0.84 µM | 
COc1cc(C2c3cc4c(cc3C(Sc3nnc(C)s3)C3COC(=O)C23)OCO4)cc(OC)c1O (stereo not drawn) [Compound 21, 4-S-(5-methyl-1,3,4-thiadiazol-2)-4-deoxy-4′-demethylepipodophyllotoxin] | 0.52 µM | 0.83 ± 0.14 µM | 5.76 ± 0.18 µM | 
COc1cc(C2c3cc4c(cc3C(Sc3ccccn3)C3COC(=O)C23)OCO4)cc(OC)c1O (stereo not drawn) [Compound 22, 4-S-(pyridin-2)-4-deoxy-4′-demethylepipodophyllotoxin] | 2.31 ± 0.31 µM | 0.27 ± 0.03 µM | 1.01 ± 0.38 µM | 
COc1cc(C2c3cc4c(cc3C(Sc3ncccc3C(=O)O)C3COC(=O)C23)OCO4)cc(OC)c1O (stereo not drawn) [Compound 23, 4-S-(3-picolinate-2)-deoxy-4′-demethylepipodophyllotoxin] | 1.22 ± 0.25 µM | 6.68 ± 0.04 µM | 2.03 ± 0.45 µM | 
COc1cc(C2c3cc4c(cc3C(Sc3cccc(C)n3)C3COC(=O)C23)OCO4)cc(OC)c1O (stereo not drawn) [Compound 24, 4-S-(6-methyl-pyridin-2)-4-deoxy-4′-demethylepipodophyllotoxin] | 7.18 ± 0.07 µM | 4.01 ± 0.02 µM | 1.11 ± 0.94 µM | 
COc1cc(C2c3cc4c(cc3C(Sc3ccncc3)C3COC(=O)C23)OCO4)cc(OC)c1O (stereo not drawn) [Compound 25, 4-S-(pyridin-4)-4-deoxy-4′-demethylepipodophyllotoxin] | 0.73 ± 0.05 µM | 4.76 ± 0.12 µM | 2.66 ± 0.27 µM | 
COc1cc(C2c3cc4c(cc3C(Sc3ncccn3)C3COC(=O)C23)OCO4)cc(OC)c1O (stereo not drawn) [Compound 26, 4-S-(pyrimidine-2)-4-deoxy-4′-demethylepipodophyllotoxin] | 0.25 ± 0.32 µM | 0.51 ± 0.53 µM | 4.28 ± 0.11 µM | 
COc1cc(C2c3cc4c(cc3C(Sc3nccc(N)n3)C3COC(=O)C23)OCO4)cc(OC)c1O (stereo not drawn) [Compound 27, 4-S-(4-amino-pyrimidine-2)-4-deoxy-4′-demethylepipodophyllotoxin] | 1.33 ± 0.39 µM | 0.22 ± 0.03 µM | 3.27 ± 0.17 µM | 
COc1cc(C2c3cc4c(cc3C(Sc3nc(C)cc(C)n3)C3COC(=O)C23)OCO4)cc(OC)c1O (stereo not drawn) [Compound 28, 4-S-(4,6-dimethyl-pyrimidine-2)-4-deoxy-4′-demethylepipodophyllotoxin] | 5.26 ± 0.62 µM | 4.29 ± 0.83 µM | 1.27 ± 1.12 µM | 
COc1cc(C2c3cc4c(cc3C(Sc3nc5ccccc5s3)C3COC(=O)C23)OCO4)cc(OC)c1O (stereo not drawn) [Compound 29, 4-S-(benzothiazol-2)-4-deoxy-4′-demethylepipodophyllotoxin] | 4.57 ± 0.16 µM | 1.37 ± 0.43 µM | 0.85 ± 0.93 µM | 
COc1cc(C2c3cc4c(cc3C(Sc3nc5ccccc5[nH]3)C3COC(=O)C23)OCO4)cc(OC)c1O (stereo not drawn) [Compound 30, 4-S-(benzimidazole-2)-4-deoxy-4′-demethylepipodophyllotoxin] | 0.51 ± 0.13 µM | 0.31 ± 0.16 µM | 1.24 ± 0.27 µM | 
COc1cc([C@@H]2c3cc4c(cc3[C@@H](O[C@@H]3O[C@@H]5CO[C@@H](C)O[C@H]5[C@H](O)[C@H]3O)[C@H]3COC(=O)[C@H]23)OCO4)cc(OC)c1O [etoposide, reference compound] |  |  |  | 13.2 ± 1.65 µM
